Legend:
BEL-7404 tumor cell line = assay: MTT cytotoxicity assay, BEL-7404; type: cell-based, human; conditions: for IC50: 48 h, MTT, mean ± SD; for inhibition at 20 µM: read-out: Inhibition rate BEL-7404
Protocol: (§1) The cytotoxicities of compounds 1–5 against the human tumor cell lines BEL-7404, HepG2, NCI-H460, T-24 and A549, as well as human normal liver cell line HL-7702, were tested by the MTT assay. Cisplatin was also tested for comparison.
(§2) All the cells were maintained in DMEM (Dulbecco’s Modified Eagle Medium) supplemented with 10% fetal calf serum, 100 units/mL ampicillin and […] streptomycin sulfate at 37 °C in a humidified atmosphere under 5% CO2. Compounds 1–5 were dissolved in DMSO at a concentration of 2.0 mM stock solution. The stock was diluted by PBS to the required concentration immediately before use.
(§3) Cisplatin was prepared according to a literature procedure. The cells were all grown in 96-well, flat-bottomed microtiter plates. Compounds 1–5 and cisplatin were dissolved in the culture medium (containing 1% DMSO) to a concentration of 100 μg/mL. The resultant solutions were subsequently added to a set of wells. The wells for control contained the supplemented medium with 1% DMSO. The microtiter plates were incubated at 37 °C in a humidified atmosphere of 5% CO2/95% air for a further 48 h. At the end of each incubation period, the 3-(4,5-dimethylthiazol-2-yl)-2,5-diphenyltetrazolium bromide (MTT) solution (10 μL, 5 mg/mL) was added into each well and the cultures were further incubated for 6 h under the same conditions. After the removal of the supernatant, DMSO (100 μL) was added to dissolve the formazan crystals. The absorbance of the solution was read by an enzyme-labeled microplate reader with 490/630 nm double wavelength measurement. The cytotoxicity was evaluated based on the percentage of cell survival in a dose-dependent manner relative to the negative control. The final IC50 values were calculated by the Bliss method (n = 5). All tests were repeated in at least three independent trials.

HepG2 tumor cell line = assay: MTT cytotoxicity assay, HepG2; type: cell-based, human; conditions: for IC50 / inhibition at 20 µM: Homo sapiens, HepG2; for IC50: 48 h, mean ± SD; for IC50 / Growth inhibition on HepG2 cell lines (in words): MTT; for inhibition at 20 µM: read-out: Inhibition rate HepG2; for Cytotoxicity toward HepG2 enhanced compared with normal liver cell HL-7702: ratio of IC50 HL-7702 to IC50 HepG2
Protocol: as §1, §2, §3

NCI-H460 tumor cell line = assay: MTT cytotoxicity assay, NCI-H460; type: cell-based, human; conditions: for IC50: 48 h, MTT, mean ± SD; for inhibition at 20 µM: read-out: Inhibition rate NCI-H460
Protocol: as §1, §2, §3

T-24 tumor cell line = assay: MTT cytotoxicity assay, T-24; type: cell-based, human; conditions: for IC50: 48 h, MTT, mean ± SD; for inhibition at 20 µM: read-out: Inhibition rate T-24
Protocol: as §1, §2, §3

[1] = test system: normal liver cell line HL-7702; assay: MTT cytotoxicity assay, HL-7702; type: cell-based, human; conditions: normal liver cells; for IC50: 48 h, MTT, mean ± SD; for inhibition at 20 µM: read-out: Inhibition rate HL-7702
Protocol: as §1, §2, §3

A549 tumor cell line = assay: MTT cytotoxicity assay, A549; type: cell-based; conditions: Homo sapiens; for IC50: 48 h, MTT, mean ± SD; for inhibition at 20 µM: complexes 1-5 at 20 μM, incubation 48 h, read-out: Inhibition rate A549
Protocol: as §1, §2, §3

[2] = complexes 1-5 at 20 μM, incubation 48 h
[3] = Homo sapiens, BEL-7404, complexes 1-5 at 20 μM, incubation 48 h
[4] = Homo sapiens, NCI-H460, complexes 1-5 at 20 μM, incubation 48 h
[5] = Homo sapiens, complexes 1-5 at 20 μM, incubation 48 h
[6] = Homo sapiens, L02, complexes 1-5 at 20 μM, incubation 48 h

With `N.N.[Cl][Pt][Cl]` [Cisplatin, reference compound] the IC50 (BEL-7404 tumor cell line) was 12.4 ± 0.38 µM, the “Inhibition rate BEL-7404” value (BEL-7404 tumor cell line; [2]) was 55.15±1.18 and the “Inhibition rate HepG2” value (HepG2 tumor cell line; [2]) was 60.63±0.99. For the same compound, the IC50 (NCI-H460 tumor cell line) was 18.9 ± 1.02 µM, the “Inhibition rate NCI-H460” value (NCI-H460 tumor cell line; [2]) was 50.88±3.69 and the IC50 (T-24 tumor cell line) was 28.1 ± 1.88 µM. The “Inhibition rate T-24” value (T-24 tumor cell line; [2]) was 47.58±2.65, the IC50 [1] was 5.63 ± 0.32 µM and the “Inhibition rate HL-7702” value [1, 2] was 73.58±2.30.
`COC(=O)c1cc(OC(C)=O)n(-c2cccc(Br)n2)n1` [Compound 1, Methyl 5-(acetyloxy)-1-(6-bromo-2-pyridinyl)-1H-pyrazole-3-carboxylate] gave an IC50 (BEL-7404 tumor cell line; Homo sapiens, BEL-7404) of 66.5 ± 1.13 µM, an inhibition at 20 µM (BEL-7404 tumor cell line; [3]) of 38.2 ± 1.99% and an IC50 (HepG2 tumor cell line) of 37.1 ± 0.54 µM. The inhibition at 20 µM (HepG2 tumor cell line; [2]) was 47.21 ± 0.44%, the “Growth inhibition on HepG2 cell lines (in words)” value (HepG2 tumor cell line) was “weakly growth inhibition” and the “Cytotoxicity toward HepG2 enhanced compared with normal liver cell HL-7702” value (HepG2 tumor cell line) was 2.98 times. It also gave an IC50 (NCI-H460 tumor cell line; Homo sapiens, NCI-H460) of 109 ± 1.65 µM, an inhibition at 20 µM (NCI-H460 tumor cell line; [4]) of 34 ± 1.76% and an IC50 (T-24 tumor cell line; Homo sapiens) of 70.5 ± 1.33 µM. For the same compound, the inhibition at 20 µM (T-24 tumor cell line; [5]) was 37.6 ± 1.72%, the IC50 (A549 tumor cell line) was 37.6 ± 1.03 µM and the inhibition at 20 µM (A549 tumor cell line) was 31.1 ± 1.39%. For the same compound, the IC50 ([1]; Homo sapiens, L02) was 111 ± 2.84 µM and the inhibition at 20 µM [1, 6] was 26.5 ± 0.42%.
With `COC(=O)c1cc(O)n(-c2cccc(Br)n2)n1` [Compound 2, Methyl 1-(6-bromo-2-pyridinyl)-5-hydroxy-1H-pyrazole-3-carboxylate] the IC50 (BEL-7404 tumor cell line; Homo sapiens, BEL-7404) was 125 ± 1.87 µM, the inhibition at 20 µM (BEL-7404 tumor cell line; [3]) was 20.2 ± 1.18% and the IC50 (HepG2 tumor cell line) was 29.8 ± 0.91 µM. For the same compound, the inhibition at 20 µM (HepG2 tumor cell line; [2]) was 43 ± 0.74%, the “Growth inhibition on HepG2 cell lines (in words)” value (HepG2 tumor cell line) was “weakly growth inhibition” and the “Cytotoxicity toward HepG2 enhanced compared with normal liver cell HL-7702” value (HepG2 tumor cell line) was 3.98 times. The IC50 (NCI-H460 tumor cell line; Homo sapiens, NCI-H460) was 40.7 ± 0.54 µM, the inhibition at 20 µM (NCI-H460 tumor cell line; [4]) was 38 ± 0.62% and the IC50 (T-24 tumor cell line; Homo sapiens) was 46.2 ± 0.87 µM. The inhibition at 20 µM (T-24 tumor cell line; [5]) was 42.5 ± 0.96%, the IC50 (A549 tumor cell line) was 44.8 ± 1.12 µM and the inhibition at 20 µM (A549 tumor cell line) was 22.4 ± 1.74%. The IC50 ([1]; Homo sapiens, L02) was 118 ± 3.34 µM and the inhibition at 20 µM [1, 6] was 24.7 ± 0.59%.
`COC(=O)C1=NN(c2cccc(Br)n2)C(=O)C1(c1c(C(=O)OC)nn(-c2cccc(Br)n2)c1O)c1c(C(=O)OC)nn(-c2cccc(Br)n2)c1O` [Compound 3, Trimethyl 1,1′,1′′-tris(6-bromo-2-pyridinyl)-5,5′′-dihydroxy-5′-oxo-1′,5′-dihydro-1H,1′′H-4,4′: 4′,4′′-terpyrazole-3,3′,3′′-tricarboxylate] was tested, and the IC50 (BEL-7404 tumor cell line; Homo sapiens, BEL-7404) was 112 ± 2.78 µM, the inhibition at 20 µM (BEL-7404 tumor cell line; [3]) was 24.6 ± 0.75% and the IC50 (HepG2 tumor cell line) was 54.7 ± 0.81 µM. The inhibition at 20 µM (HepG2 tumor cell line; [2]) was 41 ± 1.27%, the “Cytotoxicity toward HepG2 enhanced compared with normal liver cell HL-7702” value (HepG2 tumor cell line) was 2.76 times and the IC50 (NCI-H460 tumor cell line; Homo sapiens, NCI-H460) was 38 ± 0.89 µM. The inhibition at 20 µM (NCI-H460 tumor cell line; [4]) was 42.5 ± 2.27%, the IC50 (T-24 tumor cell line; Homo sapiens) was 85.38 ± 0.67 µM and the inhibition at 20 µM (T-24 tumor cell line; [5]) was 32 ± 0.89%. The IC50 (A549 tumor cell line) was 33.6 ± 1.07 µM, the inhibition at 20 µM (A549 tumor cell line) was 33.3 ± 2.51% and the IC50 ([1]; Homo sapiens, L02) was 151 ± 3.06 µM. The inhibition at 20 µM [1, 6] was 22.2 ± 1.05%.
Work on `COC(=O)C1=NN(c2cccc(Br)n2)C2(C(C(=O)OC)=NN(c3cccc(Br)n3)C2O)C1(C(=O)OC)c1c(C(=O)OC)nn(-c2cccc(Br)n2)c1O` (stereo not shown) [Compound 4, Trimethyl-1,8-bis(6-bromopyridin-2-yl)-4-(1-(6-bromopyridin-2-yl)-5-hydroxy-3-(methoxycarbonyl)-1H-pyrazol-4-yl)-9-hydroxy-1,2,7,8-tetraazaspiro[4.4]nona-2,6-diene-3,4,6-tricarboxylate] yielded an IC50 (BEL-7404 tumor cell line; Homo sapiens, BEL-7404) of 41.81 ± 0.37 µM, an inhibition at 20 µM (BEL-7404 tumor cell line; [3]) of 39.6 ± 1.43% and an IC50 (HepG2 tumor cell line) of 10.7 ± 0.38 µM. The inhibition at 20 µM (HepG2 tumor cell line; [2]) was 53.3 ± 0.92%, the “Increase in HepG2 cytotoxicity compared to the free ligand 5” value (HepG2 tumor cell line; IC50 of 5 relative to IC50 of 4, HepG2) was “approximately 16.44 fold” and the “Cytotoxicity toward HepG2 enhanced compared with normal liver cell HL-7702” value (HepG2 tumor cell line) was 9.02 times. For the same compound, the IC50 (NCI-H460 tumor cell line; Homo sapiens, NCI-H460) was 66.48 ± 0.57 µM, the inhibition at 20 µM (NCI-H460 tumor cell line; [4]) was 33.6 ± 1.38% and the IC50 (T-24 tumor cell line; Homo sapiens) was 42.9 ± 1.41 µM. It also gave an inhibition at 20 µM (T-24 tumor cell line; [5]) of 43.2 ± 1.15%, an IC50 (A549 tumor cell line) of 28.1 ± 1.01 µM and an inhibition at 20 µM (A549 tumor cell line) of 40.2 ± 0.44%. For the same compound, the IC50 ([1]; Homo sapiens, L02) was 96.14 ± 0.49 µM and the inhibition at 20 µM [1, 6] was 35.1 ± 1.34%.
Work on `COC(=O)C1=NN(c2cccc(Br)n2)C2(C(C(=O)O)=NN(c3cccc(Br)n3)C2O)C1(C(=O)OC)c1c(C(=O)OC)nn(-c2cccc(Br)n2)c1O` (stereo not shown) [Compound 5, 1,8-Bis(6-bromopyridin-2-yl)-4-(1-(6-bromopyridin-2-yl)-5-hydroxy-3-(methoxycarbonyl)-1H-pyrazol-4-yl)-9-hydroxy-3,4-bis(methoxycarbonyl)-1,2,7,8-tetraazaspiro[4.4]nona-2,6-diene-6-carboxylic acid] yielded an IC50 (BEL-7404 tumor cell line; Homo sapiens, BEL-7404) of 84.3 ± 1.01 µM, an inhibition at 20 µM (BEL-7404 tumor cell line; [3]) of 27.2 ± 0.94% and an IC50 (HepG2 tumor cell line) of 175.2 ± 1.1 µM. For the same compound, the inhibition at 20 µM (HepG2 tumor cell line; [2]) was 19.5 ± 1.05%, the IC50 (NCI-H460 tumor cell line; Homo sapiens, NCI-H460) was 94.56 ± 0.41 µM and the inhibition at 20 µM (NCI-H460 tumor cell line; [4]) was 25.4 ± 0.34%. The IC50 (T-24 tumor cell line; Homo sapiens) was 76 ± 1.16 µM, the inhibition at 20 µM (T-24 tumor cell line; [5]) was 35.9 ± 1.26% and the IC50 (A549 tumor cell line) was 77.56 ± 0.72 µM. For the same compound, the inhibition at 20 µM (A549 tumor cell line) was 29.4 ± 0.65%, the IC50 ([1]; Homo sapiens, L02) was 102.3 ± 0.85 µM and the inhibition at 20 µM [1, 6] was 26.9 ± 0.79%.

From article PMC6150270, “Solvent and Copper Ion-Induced Synthesis of Pyridyl–Pyrazole-3-One Derivatives: Crystal Structure, Cytotoxicity” (Molecules : A Journal of Synthetic Chemistry and Natural …, 2017)
